Values quoted from earlier work, collected in article PMC3341666 (Biochemistry, 2009).

How the values were obtained:
[1] = molecular target: Prostate-Specific Antigen (PSA) (Homo sapiens, UniProt P07288); settings: introduction statement, no reference given
Bovine α-Chymotrypsin = Bovine α-Chymotrypsin (Bos taurus, UniProt P00766); settings: previous study

Sequence of Prostate-Specific Antigen (PSA) (P07288 25-261): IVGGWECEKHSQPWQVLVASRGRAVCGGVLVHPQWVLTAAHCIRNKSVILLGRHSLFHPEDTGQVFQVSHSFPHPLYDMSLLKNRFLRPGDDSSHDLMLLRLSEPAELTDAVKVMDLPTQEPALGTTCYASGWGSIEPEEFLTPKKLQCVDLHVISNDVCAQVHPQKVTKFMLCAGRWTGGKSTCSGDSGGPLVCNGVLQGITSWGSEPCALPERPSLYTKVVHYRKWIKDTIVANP

Row | fold higher Ki for chymotrypsin (vs PSA) (Bovine α-Chymotrypsin) | Compound | PSA inhibition (in words) [1]
1 |  | O=S(=O)(F)Cc1ccccc1 [PMSF, phenylmethylsulphonyl fluoride] | poor PSA inhibitors
2 |  | Cc1ccc(S(=O)(=O)N[C@@H](Cc2ccccc2)C(=O)CCl)cc1 [TPCK, tosyl-phenylalanine chloromethylketone] | poor PSA inhibitors
3 | ~ 65 fold | Z-SSKL(boro)L | 
